Source: US8247211B2, “Glycopeptide antibiotics” (American Cyanamid Company, priority 2001, dated 2012)
Converted amounts (≈) assume the structure as drawn.

Key:
Test in all cases: In vitro antibacterial evaluation: minimum inhibitory concentration (MIC), broth dilution method
Type in all cases: cell-based
Conditions in all cases: 18 hours at 35° C.
Staphylococcus sp. = system: Staphylococcus sp.
Procedure, shortened: (§1)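 NCCLS M7-A2 broth dilution; Muller-Hinton II […]; 5×10^5 CFU/mL; 64-0.06 μg/mL. MIC = lowest concentration with no growth.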

Escherichia coli = system: Escherichia coli
Procedure, shortened: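 Susceptibility determined by NCCLS-recommended broth dilution (M7-A2), Muller-Hinton II […]. Concentration span 64-0.06 μg/mL, inoculum 5×10^5 CFU/mL. Isolates include strains resistant to methicillin, penicillin and/or vancomycin.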

Streptococcus sp. = system: Streptococcus sp.
Procedure, shortened: as §1

Enterococcus sp. = system: Enterococcus sp.
Procedure, shortened: as §1

[1] = broth dilution, inoculum 5×10^5 CFU/mL

MIC Coagulase Negative Staphylococcus (GC 4547) (Staphylococcus sp.; Coagulase Negative Staphylococcus (GC 4547)): 1 µg/mL (≈ 0.715 µM) | MIC Coagulase Negative Staphylococcus (GC 4548) (Staphylococcus sp.; Coagulase Negative Staphylococcus (GC 4548)): 1 µg/mL (≈ 0.715 µM) | MIC Coagulase Negative Staphylococcus (GC 4549) (Staphylococcus sp.; Coagulase Negative Staphylococcus (GC 4549)): 0.5 µg/mL (≈ 0.357 µM) | MIC Coagulase Negative Staphylococcus (GC 4551) (Staphylococcus sp.; Coagulase Negative Staphylococcus (GC 4551)): 2 µg/mL (≈ 1.43 µM) | MIC Coagulase Negative Staphylococcus (GC 6257) (Staphylococcus sp.; Coagulase Negative Staphylococcus (GC 6257)): 1 µg/mL (≈ 0.715 µM) | MIC Staphylococcus aureus (ATCC 29213) (Staphylococcus sp.; Staphylococcus aureus (ATCC 29213)): 2 µg/mL (≈ 1.43 µM) | MIC Staphylococcus aureus (GC 1131) (Staphylococcus sp.; Staphylococcus aureus (GC 1131)): 2 µg/mL (≈ 1.43 µM) | MIC Staphylococcus aureus (GC 3051) (Staphylococcus sp.; Staphylococcus aureus (GC 3051)): 2 µg/mL (≈ 1.43 µM) | MIC Staphylococcus aureus (GC 3053) (Staphylococcus sp.; Staphylococcus aureus (GC 3053)): 2 µg/mL (≈ 1.43 µM) | MIC Staphylococcus aureus (GC 4541) (Staphylococcus sp.; Staphylococcus aureus (GC 4541)): 2 µg/mL (≈ 1.43 µM) | MIC Staphylococcus aureus (GC 4542) (Staphylococcus sp.; Staphylococcus aureus (GC 4542)): 2 µg/mL (≈ 1.43 µM) | MIC Staphylococcus aureus (GC 4544) (Staphylococcus sp.; Staphylococcus aureus (GC 4544)): 2 µg/mL (≈ 1.43 µM) | MIC Staphylococcus aureus (GC 4545) (Staphylococcus sp.; Staphylococcus aureus (GC 4545)): 2 µg/mL (≈ 1.43 µM) | MIC Staphylococcus aureus-SMITH (GC 4543) (Staphylococcus sp.; Staphylococcus aureus-SMITH (GC 4543)): 2 µg/mL (≈ 1.43 µM) | MIC Escherichia coli (ATCC 25922) (Escherichia coli; Escherichia coli (ATCC 25922)): 64 µg/mL (≈ 45.7 µM) | MIC Escherichia coli (GC 4559) (Escherichia coli; Escherichia coli (GC 4559)): 64 µg/mL (≈ 45.7 µM) | MIC Escherichia coli (GC 4560) (Escherichia coli; Escherichia coli (GC 4560)): 1 µg/mL (≈ 0.715 µM) | MIC Streptococcus agalactiae (GC 4564) (Streptococcus sp.; Streptococcus agalactiae (GC 4564)): 0.5 µg/mL (≈ 0.357 µM) | MIC Streptococcus pneumoniae (ATCC 6301) (Streptococcus sp.; Streptococcus pneumoniae (ATCC 6301)): 0.25 µg/mL (≈ 0.179 µM) | MIC Streptococcus pneumoniae (GC 1894) (Streptococcus sp.; Streptococcus pneumoniae (GC 1894)): 0.12 µg/mL (≈ 0.0857 µM) | MIC Streptococcus pneumoniae (GC 4565) (Streptococcus sp.; Streptococcus pneumoniae (GC 4565)): 0.25 µg/mL (≈ 0.179 µM) | MIC Streptococcus pyogenes (GC 4563) (Streptococcus sp.; Streptococcus pyogenes (GC 4563)): 0.5 µg/mL (≈ 0.357 µM) | MIC Streptococcus agalactiae (GC 4564) (Streptococcus sp.; [1]): 0.5 µg/mL (≈ 0.357 µM) | MIC Streptococcus pneumoniae (ATCC 6301) (Streptococcus sp.; [1]): 0.25 µg/mL (≈ 0.179 µM) | MIC Streptococcus pneumoniae (GC 1894) (Streptococcus sp.; [1]): 0.12 µg/mL (≈ 0.0857 µM) | MIC Streptococcus pneumoniae (GC 4565) (Streptococcus sp.; [1]): 0.25 µg/mL (≈ 0.179 µM) | MIC Streptococcus pyogenes (GC 4563) (Streptococcus sp.; [1]): 0.5 µg/mL (≈ 0.357 µM) | MIC Enterococcus avium (GC 4558) (Enterococcus sp.; Enterococcus avium (GC 4558)): 8 µg/mL (≈ 5.72 µM) | MIC Enterococcus faecalis (ATCC 29212) (Enterococcus sp.; Enterococcus faecalis (ATCC 29212)): 8 µg/mL (≈ 5.72 µM) | MIC Enterococcus faecalis (GC 2242) (Enterococcus sp.; Enterococcus faecalis (GC 2242)): 4 µg/mL (≈ 2.86 µM) | MIC Enterococcus faecalis (GC 2691) (Enterococcus sp.; Enterococcus faecalis (GC 2691)): 8 µg/mL (≈ 5.72 µM) | MIC Enterococcus faecalis (GC 3059) (Enterococcus sp.; Enterococcus faecalis (GC 3059)): 8 µg/mL (≈ 5.72 µM) | MIC Enterococcus faecalis (GC 4552) (Enterococcus sp.; Enterococcus faecalis (GC 4552)): 8 µg/mL (≈ 5.72 µM) | MIC Enterococcus faecalis (GC 4553) (Enterococcus sp.; Enterococcus faecalis (GC 4553)): 8 µg/mL (≈ 5.72 µM) | MIC Enterococcus faecalis (GC 4554) (Enterococcus sp.; Enterococcus faecalis (GC 4554)): 8 µg/mL (≈ 5.72 µM) | MIC Enterococcus faecalis (GC 6189) (Enterococcus sp.; Enterococcus faecalis (GC 6189)): 8 µg/mL (≈ 5.72 µM) | MIC Enterococcus faecium (GC 2243) (Enterococcus sp.; Enterococcus faecium (GC 2243)): 8 µg/mL (≈ 5.72 µM) | MIC Enterococcus faecium (GC 4556) (Enterococcus sp.; Enterococcus faecium (GC 4556)): 8 µg/mL (≈ 5.72 µM) | MIC Enterococcus faecium (GC 4557) (Enterococcus sp.; Enterococcus faecium (GC 4557)): 2 µg/mL (≈ 1.43 µM) | MIC Enterococcus faecalis (GC 2242) (Enterococcus sp.; [1]): 4 µg/mL (≈ 2.86 µM) | MIC Enterococcus faecalis (GC 2691) (Enterococcus sp.; [1]): 8 µg/mL (≈ 5.72 µM) | MIC Enterococcus faecalis (GC 3059) (Enterococcus sp.; [1]): 8 µg/mL (≈ 5.72 µM)
SMILES: Cc1ccc(COCC2OC(OC3C(CO)OC(Oc4ccc(CC5NC(=O)C(C(C)c6ccccc6)NC(=O)CNC(=O)C(CO)NC(=O)C(C(O)C6CNC(=N)N6C6OC(CO)C(O)C(O)C6O)NC(=O)C(C(O)C6CNC(=N)N6)NC5=O)cc4)C(O)C3O)C(O)C(O)C2O)cc1 (stereo not shown) [Example 234]
MIC Staphylococcus haemolyticus (GC 4546) (Staphylococcus sp.; Staphylococcus haemolyticus (GC 4546)): 1 µg/mL (≈ 0.715 µM)
